{
  "source": "patent US7332518B2",
  "about": "“Carboxamides as fungicides in agriculture” (Syngenta Crop Protection, Inc., priority 2001, dated 2008)",
  "data": [
    {"units": {"melting point": "°C"}, "values": [
      {"smiles": "Cn1cc(C(=O)NCC#Cc2ccccc2-c2ccc(Br)cc2)c(C(F)(F)F)n1", "note": "[Compound 2.010, 1-Methyl-3-trifluoromethyl-1H-pyrazole-4-carboxylic acid (4′-bromobiphenyl-2-yl)prop-2-ynyl-amide]", "melting point": "171 to 172"},
      {"smiles": "Cn1cc(C(=O)NC=C=Cc2ccccc2-c2ccc(Br)cc2)c(C(F)(F)F)n1", "note": "[Compound 2.123, 1-Methyl-3-trifluoromethyl-1H-pyrazole-4-carboxylic acid (4′-bromobiphenyl-2-yl)propa-1,2-dienyl-amide]", "melting point": "146 to 149"},
      {"smiles": "C#CCN(C(=O)c1cn(C)cc1C(F)(F)F)c1cccc2c1C(C)CC2(C)C", "note": "(stereo not drawn) [Compound 10.3, 1-methyl-4-trifluoromethyl-1H-pyrrole-3-carboxylic acid prop-2-ynyl-(1,1,3-trimethylindan-4-yl)amide]", "melting point": "142 to 144"}
    ]}
  ]
}
